Measurements reported in US9029337B2, “Modulation of factor 7 expression” (Isis Pharmaceuticals, Inc., priority 2007, dated 2015).
Strand notation (5' to 3'): a small letter for the sugar, then the base; units joined by * are phosphorothioate-linked, units joined directly phosphodiester-linked; [ ] holds rarer units or linkages, { } end groups; capitals alone tell only the bases. e = 2'-O-(2-methoxyethyl) (MOE); [5mC] = 5-methylcytosine; d = 2'-deoxy (DNA)

What follows are substances tested on human Factor 7 mRNA (assay: Antisense inhibition of human Factor 7 mRNA in HepB3 cells, 50 nM antisense oligonucleotide, lipofectin). Conditions: Table 1, 50 nM, lipofectin, approximately 24 hours, relative to untreated control cells.
Type: cell-based
Outline: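 4,000 cells/well; ~24 h exposure; RNA isolated; probe set RTS 2927; normalised to RIBOGREEN® total RNA; % inhibition vs untreated.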

Substance	% Inhibition [%]
407659 (antisense eG*eA*eT*eG*eG*d[5mC]*dA*dT*d[5mC]*dG*dA*dG*dT*d[5mC]*d[5mC]*eA*e[5mC]*eT*e[5mC]*eT) [compound 407659]	55
407924 (antisense eG*eA*eT*eT*eT*dG*dG*dT*dG*d[5mC]*d[5mC]*dA*dG*dG*dA*e[5mC]*eA*eG*eT*eT) [compound 407924]	68
407647 (antisense eG*e[5mC]*eA*eG*e[5mC]*d[5mC]*dG*dT*dT*dT*dA*dT*dT*dG*dT*eG*eA*eA*eG*e[5mC]) [compound 407647]	83
407655 (antisense eA*eG*eA*eG*eT*dG*d[5mC]*dA*dG*d[5mC]*dT*dT*dG*d[5mC]*d[5mC]*eA*eG*eG*eT*e[5mC]) [compound 407655]	28
407962 (antisense eT*eT*eG*eG*eA*dA*dG*d[5mC]*dA*dG*d[5mC]*d[5mC]*d[5mC]*dA*d[5mC]*eG*eG*e[5mC]*eT*eG) [compound 407962]	41
407634 (antisense eG*eT*eG*eA*e[5mC]*dT*dG*d[5mC]*dT*dG*d[5mC]*dA*dG*dG*d[5mC]*eA*eG*eT*e[5mC]*e[5mC]) [compound 407634]	24
407649 (antisense eG*eA*eG*eG*eG*dT*dT*d[5mC]*dA*dT*dT*dT*d[5mC]*dA*dG*eT*eG*eA*eT*eG) [compound 407649]	24
407600 (antisense eT*eG*eA*eA*eG*d[5mC]*d[5mC]*d[5mC]*dA*dA*dG*d[5mC]*dA*dG*dA*eA*eG*eG*e[5mC]*eA) [compound 407600]	61
407645 (antisense eG*eA*eG*eA*eG*d[5mC]*dT*dA*dA*dA*d[5mC]*dA*dA*d[5mC]*d[5mC]*eG*e[5mC]*e[5mC]*eT*eT) [compound 407645]	65
407908 (antisense e[5mC]*e[5mC]*e[5mC]*e[5mC]*eA*dG*d[5mC]*d[5mC]*dG*d[5mC]*dT*dG*dA*d[5mC]*d[5mC]*eA*eA*eT*eG*eA) [compound 407908]	47
407929 (antisense eG*e[5mC]*eA*eG*eA*dG*d[5mC]*dA*dG*d[5mC]*dA*dG*d[5mC]*d[5mC]*dT*eG*eA*eG*eG*e[5mC]) [compound 407929]	53
407666 (antisense eT*e[5mC]*e[5mC]*e[5mC]*e[5mC]*dA*dG*dG*dA*d[5mC]*dA*dT*d[5mC]*dT*dG*eG*eA*eA*e[5mC]*eT) [compound 407666]	52
407950 (antisense eA*eG*e[5mC]*eT*eT*d[5mC]*d[5mC]*dA*dT*dG*dT*dG*dA*dG*dG*eG*eT*eT*e[5mC]*eA) [compound 407950]	58
407625 (antisense eT*eT*eG*eT*e[5mC]*dG*dA*dA*dA*d[5mC]*dA*dG*dT*dG*dG*eG*e[5mC]*e[5mC]*eG*e[5mC]) [compound 407625]	100
407902 (antisense e[5mC]*eA*e[5mC]*e[5mC]*e[5mC]*dA*dG*dA*dT*dG*dG*dT*dG*dT*dT*eG*eA*eT*e[5mC]*eA) [compound 407902]	86
407669 (antisense eT*eA*eG*eA*e[5mC]*d[5mC]*d[5mC]*dT*d[5mC]*dA*dG*dT*dG*dA*dG*eT*eG*eT*e[5mC]*eG) [compound 407669]	57

Same assay, conditions: Table 6, 50 nM, lipofectin, approximately 24 hours

Substance	% Inhibition [%]
422120 (antisense e[5mC]*eG*e[5mC]*eG*eG*dA*dA*dG*dA*dA*dG*dG*dG*dA*d[5mC]*eG*eG*eA*eA*eG) [compound 422120]	40
422269 (antisense eG*eA*dG*d[5mC]*dG*d[5mC]*dG*dG*dA*dA*dG*dA*dA*dG*dG*eG*eA*e[5mC]*eG*eG) [compound 422269]	27
422265 (antisense eG*e[5mC]*dG*dG*dA*dA*dG*dA*dA*dG*dG*dG*dA*d[5mC]*dG*eG*eA*eA*eG*eG) [compound 422265]	34

Same assay, conditions: Table 13 (microwalk), 50 nM, lipofectin, approximately 24 hours

Substance	% Inhibition [%]
416482 (antisense e[5mC]*eA*eT*eG*eG*dT*dG*dA*dT*dG*d[5mC]*dT*dT*d[5mC]*dT*eG*eA*eA*eT*eT) [compound 416482]	64
422151 (antisense eT*eG*e[5mC]*dA*dT*dG*dG*dT*dG*dA*dT*dG*d[5mC]*dT*dT*d[5mC]*dT*eG*eA*eA) [compound 422151]	68
422226 (antisense e[5mC]*eA*dT*dG*dG*dT*dG*dA*dT*dG*d[5mC]*dT*dT*d[5mC]*dT*eG*eA*eA*eT*eT) [compound 422226]	41

Same assay, conditions: gapmers targeted to nucleobases 4868 to 4899 of SEQ ID NO: 1, Table 8

Substance	% Inhibition of human Factor 7 mRNA levels [%]
422224 (antisense eG*eG*eA*dG*d[5mC]*d[5mC]*d[5mC]*dG*dA*dG*dT*dT*d[5mC]*dT*dG*d[5mC]*dA*eG*eG*eA) [compound 422224]	62
422225 (antisense eA*eG*eG*dA*dG*d[5mC]*d[5mC]*d[5mC]*dG*dA*dG*dT*dT*d[5mC]*dT*dG*d[5mC]*eA*eG*eG) [compound 422225]	56
422214 (antisense eT*eT*e[5mC]*dT*dG*d[5mC]*dA*dG*dG*dA*dG*d[5mC]*dG*dG*d[5mC]*d[5mC]*dT*eA*eA*eA) [compound 422214]	60

Same assay, conditions: lipofectin, 50 nM antisense oligonucleotide, approximately 24 hours, Factor 7 mRNA by real-time RT-PCR (RTS 2927), relative to untreated control

Substance	% Inhibition [%]
416482 (antisense e[5mC]*eA*eT*eG*eG*dT*dG*dA*dT*dG*d[5mC]*dT*dT*d[5mC]*dT*eG*eA*eA*eT*eT) [compound 416482]	64
416461 (antisense eG*eA*eA*eG*e[5mC]*dG*d[5mC]*dA*d[5mC]*dG*dA*dA*dG*dG*d[5mC]*e[5mC]*eA*eG*e[5mC]*eG) [compound 416461]	43
416551 (antisense e[5mC]*eA*eG*eA*eA*dA*d[5mC]*dA*d[5mC]*d[5mC]*d[5mC]*dA*dT*d[5mC]*d[5mC]*eT*e[5mC]*eT*eG*eA) [compound 416551]	19
416425 (antisense eA*eA*eG*e[5mC]*eA*dG*dA*dA*dG*dG*d[5mC]*dA*dG*dA*dG*eG*eA*eG*e[5mC]*e[5mC]) [compound 416425]	13
416485 (antisense eG*eA*eG*e[5mC]*eT*dA*d[5mC]*dA*dG*d[5mC]*d[5mC]*dT*d[5mC]*dA*dA*eA*e[5mC]*eA*eT*e[5mC]) [compound 416485]	7
416445 (antisense eT*eA*e[5mC]*eT*eG*d[5mC]*dT*d[5mC]*dA*d[5mC]*dA*dG*d[5mC]*d[5mC]*dG*e[5mC]*e[5mC]*eG*eT*eT) [compound 416445]	57
416487 (antisense eG*e[5mC]*eA*eG*eG*dT*dG*d[5mC]*dT*d[5mC]*d[5mC]*d[5mC]*dA*dG*dG*eG*eT*e[5mC]*eT*e[5mC]) [compound 416487]	39
416448 (antisense eT*eT*eT*eT*eT*d[5mC]*d[5mC]*dA*d[5mC]*dA*dT*dG*dG*dA*dT*eA*eT*eT*e[5mC]*eA) [compound 416448]	34
416559 (antisense eG*e[5mC]*e[5mC]*eA*eT*dT*dT*d[5mC]*dT*dA*dG*dG*dT*d[5mC]*dT*eG*e[5mC]*eA*eG*eG) [compound 416559]	25
416561 (antisense eG*eG*eT*eG*eT*dG*dT*dT*d[5mC]*d[5mC]*d[5mC]*dA*dT*dA*dA*eA*eA*e[5mC]*eT*eT) [compound 416561]	16

Same assay, conditions: oligonucleotides targeted to nucleobases 11830 to 11869 of SEQ ID NO: 1 (Table 9)

Substance	% Inhibition (human Factor 7 mRNA levels) [%]
422231 (antisense eT*e[5mC]*dA*dG*dG*dG*d[5mC]*dT*dG*dG*dT*dT*dT*dT*dG*eG*eA*eG*eG*eA) [compound 422231]	22
422244 (antisense eG*eA*dG*dG*dA*dG*dA*d[5mC]*dA*dA*dT*dG*dG*dT*d[5mC]*eA*eG*eG*eG*e[5mC]) [compound 422244]	55
422105 (antisense eT*eG*eG*e[5mC]*eT*dG*dA*dG*dG*dA*dG*dA*d[5mC]*dA*dA*eT*eG*eG*eT*e[5mC]) [compound 422105]	60
422234 (antisense eT*eG*dG*dT*d[5mC]*dA*dG*dG*dG*d[5mC]*dT*dG*dG*dT*dT*eT*eT*eG*eG*eA) [compound 422234]	62

Same assay, conditions: oligonucleotides targeted to nucleobases 13760 to 13789 of SEQ ID NO: 1 (Table 10)

Substance	% Inhibition (human Factor 7 mRNA levels) [%]
422253 (antisense e[5mC]*e[5mC]*dG*d[5mC]*d[5mC]*dG*dG*d[5mC]*dT*d[5mC]*dT*dG*d[5mC]*dT*d[5mC]*eA*eT*e[5mC]*e[5mC]*e[5mC]) [compound 422253]	61
422114 (antisense e[5mC]*eG*e[5mC]*e[5mC]*eA*d[5mC]*d[5mC]*d[5mC]*dG*d[5mC]*d[5mC]*dG*dG*d[5mC]*dT*e[5mC]*eT*eG*e[5mC]*eT) [compound 422114]	50
422255 (antisense eA*e[5mC]*d[5mC]*d[5mC]*dG*d[5mC]*d[5mC]*dG*dG*d[5mC]*dT*d[5mC]*dT*dG*d[5mC]*eT*e[5mC]*eA*eT*e[5mC]) [compound 422255]	30
422112 (antisense e[5mC]*e[5mC]*eA*e[5mC]*e[5mC]*d[5mC]*dG*d[5mC]*d[5mC]*dG*dG*d[5mC]*dT*d[5mC]*dT*eG*e[5mC]*eT*e[5mC]*eA) [compound 422112]	61

Same assay, conditions: oligonucleotides targeted to nucleobases 14707 to 14732 of SEQ ID NO: 1 (Table 11)

Substance	% Inhibition (human Factor 7 mRNA levels) [%]
422280 (antisense e[5mC]*eA*dG*d[5mC]*d[5mC]*dT*dG*dA*dG*dG*d[5mC]*d[5mC]*dA*dG*d[5mC]*eA*eG*eA*eT*e[5mC]) [compound 422280]	52
422206 (antisense e[5mC]*eA*eG*d[5mC]*dA*dG*d[5mC]*d[5mC]*dT*dG*dA*dG*dG*d[5mC]*d[5mC]*dA*dG*e[5mC]*eA*eG) [compound 422206]	65

Same assay, conditions: oligonucleotides targeted to nucleobases 15098 to 15122 of SEQ ID NO: 1 (Table 12)

Substance	% Inhibition (human Factor 7 mRNA levels) [%]
422287 (antisense e[5mC]*eA*dG*d[5mC]*dA*d[5mC]*dA*d[5mC]*dA*dT*dG*dG*dA*dG*dT*e[5mC]*eA*eG*e[5mC]*eA) [compound 422287]	41
